Values quoted from earlier work, collected in publication PMC8674134, “Safety and efficacy of avapritinib in advanced systemic mastocytosis: the phase 1 EXPLORER trial” (Nature Medicine, 2021).

Columns and labels:
KIT D816V = test system: KIT D816V; design: method as in PMID 16779792, PMID 15166033, PMID 19193436; details: cited from earlier work
[1] = test system: advanced systemic mastocytosis (AdvSM); design: method as in PMID 32392175; details: post hoc exploratory analysis of pivotal phase 2 study; cited from earlier work
mast cell leukemia (MCL) = test system: mast cell leukemia (MCL); design: method as in PMID 27355533; details: patients with MCL; 95% CI, 6–54%; cited from earlier work

## Cc1ccc(NC(=O)c2ccc(CN3CCN(C)CC3)cc2)cc1Nc1nccc(-c2cccnc2)n1 [Imatinib]
KIT D816V
  Activity against KIT D816V: lacks activity

## CO[C@@H]1[C@H](N(C)C(=O)c2ccccc2)C[C@H]2O[C@]1(C)n1c3ccccc3c3c4c(c5c6ccccc6n2c5c31)C(=O)NC4 [midostaurin]
[1]
  CR rate by IWG-MRT-ECNM criteria: 2%
  Responses by IWG-MRT-ECNM criteria, patients: 28%
Mast cell leukemia (MCL)
  24-month OS: 26%
